Results as given in paper PMC5218480 (PLoS ONE, 2017).

Test system: MV-4-11 cells
Experiment: Gene expression microarray analysis (Affymetrix PrimeView) and GSEA
Assay type: cell-based, human
Set-up: RFU PODN (11730768_x_at) / Fold change /veh PODN (11730768_x_at) / RFU LINC00158 (11744669_a_at) / Fold change /veh LINC00158 (11744669_a_at) / RFU DUSP10 (11751237_a_at) / Fold change /veh DUSP10 (11751237_a_at) / RFU ID3 (11757404_x_at) / Fold change /veh ID3 (11757404_x_at) / RFU PLEKHG5 (11737974_s_at) / Fold change /veh PLEKHG5 (11737974_s_at) / RFU LRRC4B (11730491_at) / Fold change /veh LRRC4B (11730491_at) / RFU GIMAP4 (11747438_a_at) / Fold change /veh GIMAP4 (11747438_a_at) / RFU KRT8 (11758183_x_at) / Fold change /veh KRT8 (11758183_x_at) / RFU CNN1 (11734310_a_at) / Fold change /veh CNN1 (11734310_a_at) / RFU VPS37D (11726825_at) / Fold change /veh VPS37D (11726825_at) / RFU C10orf10 (11716522_x_at) / Fold change /veh C10orf10 (11716522_x_at) / RFU KIR2DL2 /// KIR2DL4 /// KIR2DL5A /// KIR2DL5B /// KIR2DS1 /// KIR2DS2 /// KIR2DS3 /// KIR2DS4 /// KIR3DL3 /// KIR3DL3 /// KIR3DS1 (11738374_at) / Fold change /veh KIR2DL2 /// KIR2DL4 /// KIR2DL5A /// KIR2DL5B /// KIR2DS1 /// KIR2DS2 /// KIR2DS3 /// KIR2DS4 /// KIR3DL3 /// KIR3DL3 /// KIR3DS1 (11738374_at) / RFU C1QL1 (11718748_at) / Fold change /veh C1QL1 (11718748_at) / RFU TMPRSS4 (11747572_a_at) / Fold change /veh TMPRSS4 (11747572_a_at) / RFU HAMP (11756126_x_at) / Fold change /veh HAMP (11756126_x_at) / RFU RNFT2 (11725882_a_at) / Fold change /veh RNFT2 (11725882_a_at) / RFU NR4A2 (11747474_a_at) / Fold change /veh NR4A2 (11747474_a_at) / RFU ABCC12 (11746883_a_at) / Fold change /veh ABCC12 (11746883_a_at) / RFU TMEM136 (11760407_x_at) / Fold change /veh TMEM136 (11760407_x_at) / RFU CLDN22 /// WWC2 (11732394_at) / Fold change /veh CLDN22 /// WWC2 (11732394_at) / RFU HLA-DPB1 (11760878_x_at) / Fold change /veh HLA-DPB1 (11760878_x_at) / RFU SPINT1 (11716480_a_at) / Fold change /veh SPINT1 (11716480_a_at) / RFU GAP43 (11754022_s_at) / Fold change /veh GAP43 (11754022_s_at) / RFU A4GNT (11735810_at) / Fold change /veh A4GNT (11735810_at) / RFU PRB3 (11715151_x_at) / Fold change /veh PRB3 (11715151_x_at) / RFU TUBB4B (11761932_at) / Fold change /veh TUBB4B (11761932_at) / RFU CAPN14 (11732068_a_at) / Fold change /veh CAPN14 (11732068_a_at) / RFU TMCC2 (11721928_a_at) / Fold change /veh TMCC2 (11721928_a_at) / RFU IRGQ (11745062_a_at) / Fold change /veh IRGQ (11745062_a_at) / RFU FAM174B (11720279_a_at) / Fold change /veh FAM174B (11720279_a_at) / RFU TMPRSS4 (11748680_a_at) / Fold change /veh TMPRSS4 (11748680_a_at) / RFU FAM212B (11763350_a_at) / Fold change /veh FAM212B (11763350_a_at) / RFU PLEKHG5 (11743358_a_at) / Fold change /veh PLEKHG5 (11743358_a_at) / RFU ZSCAN30 (11745921_a_at) / Fold change /veh ZSCAN30 (11745921_a_at) / RFU CMKLR1 (11741424_a_at) / Fold change /veh CMKLR1 (11741424_a_at) / RFU LOC101060620 /// MAPK8IP1 (11723275_at) / Fold change /veh LOC101060620 /// MAPK8IP1 (11723275_at) / RFU SPTSSB (11747773_x_at) / Fold change /veh SPTSSB (11747773_x_at) / RFU PRSS12 (11739890_at) / Fold change /veh PRSS12 (11739890_at) / RFU BIN1 (11741810_x_at) / Fold change /veh BIN1 (11741810_x_at) / RFU WNT11 (11732464_a_at) / Fold change /veh WNT11 (11732464_a_at) / RFU C10orf10 (11716521_a_at) / Fold change /veh C10orf10 (11716521_a_at) / RFU C5orf56 (11738089_at) / Fold change /veh C5orf56 (11738089_at) / RFU CYB561 (11721691_x_at) / Fold change /veh CYB561 (11721691_x_at) / RFU ANKRD19P (11752326_a_at) / Fold change /veh ANKRD19P (11752326_a_at) / RFU OR2T12 /// OR2T33 /// OR2T8 (11738714_s_at) / Fold change /veh OR2T12 /// OR2T33 /// OR2T8 (11738714_s_at) / RFU VCAN (11748164_a_at) / Fold change /veh VCAN (11748164_a_at) / RFU JSRP1 (11732532_at) / Fold change /veh JSRP1 (11732532_at) / RFU KRTAP10-11 (11738290_x_at) / Fold change /veh KRTAP10-11 (11738290_x_at) / RFU MYO3A (11730013_a_at) / Fold change /veh MYO3A (11730013_a_at) / RFU EBF3 (11725865_a_at) / Fold change /veh EBF3 (11725865_a_at) / RFU CAMK2N1 (11719241_x_at) / Fold change /veh CAMK2N1 (11719241_x_at) / RFU C5orf56 (11738088_a_at) / Fold change /veh C5orf56 (11738088_a_at) / RFU OLFML3 (11715873_a_at) / Fold change /veh OLFML3 (11715873_a_at) / RFU LOC100653217 /// NTM (11731650_a_at) / Fold change /veh LOC100653217 /// NTM (11731650_a_at) / RFU MAPK11 (11762145_a_at) / Fold change /veh MAPK11 (11762145_a_at) / RFU FIZ1 (11724087_x_at) / Fold change /veh FIZ1 (11724087_x_at) / RFU OASL (11726364_x_at) / Fold change /veh OASL (11726364_x_at) / RFU SOX15 (11748057_x_at) / Fold change /veh SOX15 (11748057_x_at) / RFU CD79A (11719716_a_at) / Fold change /veh CD79A (11719716_a_at) / RFU HIST1H1D (11736915_at) / Fold change /veh HIST1H1D (11736915_at) / RFU CASKIN2 (11723855_a_at) / Fold change /veh CASKIN2 (11723855_a_at) / RFU LOC730098 (11760151_x_at) / Fold change /veh LOC730098 (11760151_x_at) / RFU OR4N2 (11742367_at) / Fold change /veh OR4N2 (11742367_at) / RFU PRRT2 (11749266_a_at) / Fold change /veh PRRT2 (11749266_a_at) / RFU SNX32 (11753110_a_at) / Fold change /veh SNX32 (11753110_a_at) / RFU CDHR5 (11726645_a_at) / Fold change /veh CDHR5 (11726645_a_at) / RFU RCAN1 (11760418_a_at) / Fold change /veh RCAN1 (11760418_a_at) / RFU FAM167A (11723789_a_at) / Fold change /veh FAM167A (11723789_a_at) / RFU FAM26E (11764081_at) / Fold change /veh FAM26E (11764081_at) / RFU ISYNA1 (11749810_s_at) / Fold change /veh ISYNA1 (11749810_s_at) / RFU ACY1 (11761880_at) / Fold change /veh ACY1 (11761880_at) / RFU 11764098_at / Fold change /veh 11764098_at / RFU SAMD14 (11745864_x_at) / Fold change /veh SAMD14 (11745864_x_at) / RFU NPB (11741838_a_at) / Fold change /veh NPB (11741838_a_at) / RFU TMPRSS6 (11731388_a_at) / Fold change /veh TMPRSS6 (11731388_a_at) / RFU KRTAP10-2 (11738614_at) / Fold change /veh KRTAP10-2 (11738614_at) / RFU ARHGAP8 /// PRR5-ARHGAP8 (11727945_x_at) / Fold change /veh ARHGAP8 /// PRR5-ARHGAP8 (11727945_x_at) / RFU KRTAP5-7 /// NADSYN1 (11734609_at) / Fold change /veh KRTAP5-7 /// NADSYN1 (11734609_at) / RFU RASL12 (11751679_a_at) / Fold change /veh RASL12 (11751679_a_at) / RFU CDKN2B (11736163_a_at) / Fold change /veh CDKN2B (11736163_a_at) / RFU PRF1 (11729649_at) / Fold change /veh PRF1 (11729649_at) / RFU, ZNF638 /// ZNF638-IT1 / Fold change vs veh, ZNF638 /// ZNF638-IT1 / RFU, PANK3 / Fold change vs veh, PANK3 / RFU, SH3YL1 / Fold change vs veh, SH3YL1 / RFU, ZEB2 / Fold change vs veh, ZEB2 / RFU, NRIP1 / Fold change vs veh, NRIP1 / RFU, PTTG1IP / Fold change vs veh, PTTG1IP / RFU, CAPN2 / Fold change vs veh, CAPN2 / RFU, MED14 / Fold change vs veh, MED14 / RFU, SNORA58 / Fold change vs veh, SNORA58 / RFU, C1orf63 / Fold change vs veh, C1orf63 / RFU, LRRFIP1 / Fold change vs veh, LRRFIP1 / RFU, NDUFAF7 / Fold change vs veh, NDUFAF7 / RFU, SLC12A2 / Fold change vs veh, SLC12A2 / RFU, IBTK / Fold change vs veh, IBTK / RFU, ESF1 / Fold change vs veh, ESF1 / Fold change vs veh, TMEM50B / RFU, TAOK1 / Fold change vs veh, TAOK1 / RFU, ACBD3 / Fold change vs veh, ACBD3 / RFU, TMA16 / Fold change vs veh, TMA16 / RFU, RWDD3 / Fold change vs veh, RWDD3 / RFU, BCAT1 / Fold change vs veh, BCAT1 / RFU, EDEM3 / Fold change vs veh, EDEM3 / RFU, TMEM33 / Fold change vs veh, TMEM33 / RFU, WDR75 / Fold change vs veh, WDR75 / RFU, AHCTF1 / Fold change vs veh, AHCTF1 / RFU, TFRC / Fold change vs veh, TFRC / RFU, ZDHHC17 / Fold change vs veh, ZDHHC17 / RFU, NOM1 / Fold change vs veh, NOM1 / RFU, ARL8B / Fold change vs veh, ARL8B / RFU, ZBTB11 / Fold change vs veh, ZBTB11 / RFU, TAMM41 / Fold change vs veh, TAMM41 / RFU, KIAA1704 /// LOC100996395 / Fold change vs veh, KIAA1704 /// LOC100996395 / RFU, ING1 / Fold change vs veh, ING1 / RFU, TRMT61B / Fold change vs veh, TRMT61B / RFU, FUBP3 / Fold change vs veh, FUBP3 / RFU, TP53 / Fold change vs veh, TP53 / RFU, TNKS2 / Fold change vs veh, TNKS2 / RFU, ZFP14 / Fold change vs veh, ZFP14 / RFU, ACTR2 / Fold change vs veh, ACTR2 / RFU, PPP3R1 / Fold change vs veh, PPP3R1 / RFU, PIK3R1 / Fold change vs veh, PIK3R1 / RFU, HNRNPA1 / Fold change vs veh, HNRNPA1 / RFU, RNF170 / Fold change vs veh, RNF170 / RFU, ZNF28 / Fold change vs veh, ZNF28 / RFU, RNGTT / Fold change vs veh, RNGTT / RFU, OGT / Fold change vs veh, OGT / RFU, BRD1 / Fold change vs veh, BRD1 / RFU, MARS / Fold change vs veh, MARS / RFU, ZNF655 / Fold change vs veh, ZNF655 / RFU, FAHD1 / Fold change vs veh, FAHD1 / RFU, BDP1 / Fold change vs veh, BDP1 / RFU, LRRCC1 / Fold change vs veh, LRRCC1 / RFU, ARID1A / Fold change vs veh, ARID1A / RFU, ZNF146 / Fold change vs veh, ZNF146 / RFU, ZNF330 / Fold change vs veh, ZNF330 / RFU, GPN3 / Fold change vs veh, GPN3 / RFU, C9orf123 / Fold change vs veh, C9orf123 / RFU, N4BP2L2 / Fold change vs veh, N4BP2L2 / RFU, ARFIP1 / Fold change vs veh, ARFIP1 / RFU, FAM179B / Fold change vs veh, FAM179B / RFU, BCL10 / Fold change vs veh, BCL10 / RFU, UHRF1BP1L / Fold change vs veh, UHRF1BP1L / RFU, BET1 / Fold change vs veh, BET1 / RFU, CNOT2 / Fold change vs veh, CNOT2 / RFU, ZNF268 / Fold change vs veh, ZNF268 / Fold change vs veh, ZNF507 / RFU, DGCR2 / Fold change vs veh, DGCR2 / RFU, WDSUB1 / Fold change vs veh, WDSUB1 / Fold change vs veh, HSP90B1 /// MIR3652 / RFU, ADSS / Fold change vs veh, ADSS / RFU, GK / Fold change vs veh, GK / RFU, ZNF148 / Fold change vs veh, ZNF148 / RFU, TAF9 / Fold change vs veh, TAF9 / RFU, SLC1A5 / Fold change vs veh, SLC1A5 / RFU, SLMO2 / Fold change vs veh, SLMO2 / RFU, ABCC4 / Fold change vs veh, ABCC4 / RFU, LOC101060439 /// RAP1B / Fold change vs veh, LOC101060439 /// RAP1B / RFU, RFX7 / Fold change vs veh, RFX7 / RFU, GTPBP10 / Fold change vs veh, GTPBP10 / RFU, CNEP1R1 / Fold change vs veh, CNEP1R1 / RFU, BIVM-ERCC5 /// ERCC5 / Fold change vs veh, BIVM-ERCC5 /// ERCC5 / RFU, ILF3 / Fold change vs veh, ILF3 / RFU 11762660_at / Fold change /veh 11762660_at / RFU VCAN (11757783_s_at) / Fold change /veh VCAN (11757783_s_at) / RFU DDX43 (11728927_at) / Fold change /veh DDX43 (11728927_at) / RFU KRT8 (11758188_x_at) / Fold change /veh KRT8 (11758188_x_at) / RFU NKD1 (11759106_at) / Fold change /veh NKD1 (11759106_at) / RFU SRD5A1 (11742802_a_at) / Fold change /veh SRD5A1 (11742802_a_at) / RFU TPSAB1 /// TPSB2 (11721975_s_at) / Fold change /veh TPSAB1 /// TPSB2 (11721975_s_at) / RFU GSTM3 (11746129_a_at) / Fold change /veh GSTM3 (11746129_a_at) / RFU IL23R (11737362_x_at) / Fold change /veh IL23R (11737362_x_at) / RFU TMEM51 (11727254_a_at) / Fold change /veh TMEM51 (11727254_a_at) / RFU PIWIL2 (11732686_x_at) / Fold change /veh PIWIL2 (11732686_x_at) / RFU ORM1 (11744905_x_at) / Fold change /veh ORM1 (11744905_x_at) / RFU CCDC152 (11743942_at) / Fold change /veh CCDC152 (11743942_at) / RFU ECM1 (11717891_a_at) / Fold change /veh ECM1 (11717891_a_at) / RFU IL23R (11748794_a_at) / Fold change /veh IL23R (11748794_a_at) / RFU TNFAIP8L3 (11732012_x_at) / Fold change /veh TNFAIP8L3 (11732012_x_at) / RFU MBOAT4 (11741988_at) / Fold change /veh MBOAT4 (11741988_at) / RFU 11764193_at / Fold change /veh 11764193_at / RFU TMEM53 (11763286_at) / Fold change /veh TMEM53 (11763286_at) / RFU MAGEB2 (11727129_at) / Fold change /veh MAGEB2 (11727129_at) / RFU TMEM200A (11744735_a_at) / Fold change /veh TMEM200A (11744735_a_at) / RFU CCDC152 (11751479_a_at) / Fold change /veh CCDC152 (11751479_a_at) / RFU FAM211A (11726209_a_at) / Fold change /veh FAM211A (11726209_a_at) / RFU RGS16 (11746705_a_at) / Fold change /veh RGS16 (11746705_a_at) / RFU VCAN (11755009_s_at) / Fold change /veh VCAN (11755009_s_at) / RFU RHOB (11743442_s_at) / Fold change /veh RHOB (11743442_s_at) / RFU RGS16 (11720943_a_at) / Fold change /veh RGS16 (11720943_a_at) / RFU RGS16 (11720944_at) / Fold change /veh RGS16 (11720944_at) / RFU, VPS4B / Fold change vs veh, VPS4B / RFU, CREB1 / Fold change vs veh, CREB1 / RFU, DNAJC13 / Fold change vs veh, DNAJC13 / RFU, GNAQ / Fold change vs veh, GNAQ / RFU, CDK5R1 / Fold change vs veh, CDK5R1 / RFU, ZRANB3 / Fold change vs veh, ZRANB3 / RFU, CUL4A / Fold change vs veh, CUL4A / RFU, CCNY / Fold change vs veh, CCNY / RFU, UFL1 / Fold change vs veh, UFL1 / RFU, COG3 / Fold change vs veh, COG3 / RFU, DIAPH2 / Fold change vs veh, DIAPH2 / RFU, SKA2 / Fold change vs veh, SKA2 / RFU, AFF3 / Fold change vs veh, AFF3 / RFU, LMF1 / Fold change vs veh, LMF1 / RFU, IPO11 / Fold change vs veh, IPO11 / RFU, DFFB / Fold change vs veh, DFFB / RFU, FOXP1 / Fold change vs veh, FOXP1 / RFU, CARD8 / Fold change vs veh, CARD8 / RFU, STRN3 / Fold change vs veh, STRN3 / RFU, ADK / Fold change vs veh, ADK / RFU, RASSF2 / Fold change vs veh, RASSF2 / RFU, WIPF1 / Fold change vs veh, WIPF1 / RFU, LARP1B / Fold change vs veh, LARP1B / RFU, RASA1 / Fold change vs veh, RASA1 / RFU, RB1 / Fold change vs veh, RB1 / RFU, PPFIA1 / Fold change vs veh, PPFIA1 / RFU, MAT2A / Fold change vs veh, MAT2A / RFU, CCT5 / Fold change vs veh, CCT5 / RFU, WDR92 / Fold change vs veh, WDR92 / RFU, CUX1 / Fold change vs veh, CUX1 / RFU, TTC7A / Fold change vs veh, TTC7A / RFU, TMEM135 / Fold change vs veh, TMEM135 / RFU, DEPTOR / Fold change vs veh, DEPTOR / RFU, CPM / Fold change vs veh, CPM / RFU, DNAJB6 / Fold change vs veh, DNAJB6 / RFU, CACNA2D3 / Fold change vs veh, CACNA2D3 / RFU, DTX4 / Fold change vs veh, DTX4 / RFU, TFCP2 / Fold change vs veh, TFCP2 / RFU, GMCL1 /// GMCL1P1 / Fold change vs veh, GMCL1 /// GMCL1P1 / RFU, AEBP2 / Fold change vs veh, AEBP2 / RFU, SNHG1 /// SNORD22 /// SNORD25 /// SNORD26 /// SNORD27 /// SNORD28 /// SNORD29 /// SNORD31 / Fold change vs veh, SNHG1 /// SNORD22 /// SNORD25 /// SNORD26 /// SNORD27 /// SNORD28 /// SNORD29 /// SNORD31 / Fold change (Aza/veh), C12orf56 (ProbeSet 11735607_a_at) / Fold change (ACY-1035/veh), C12orf56 (ProbeSet 11735607_a_at) / Fold change (Aza/veh), FGFR1OP (ProbeSet 11751329_s_at) / Fold change (ACY-1035/veh), FGFR1OP (ProbeSet 11751329_s_at) / Fold change (Aza/veh), VPS36 (ProbeSet 11739960_a_at) / Fold change (ACY-1035/veh), VPS36 (ProbeSet 11739960_a_at) / RFU SYPL1 (11715823_x_at) / Fold change /veh SYPL1 (11715823_x_at) / RFU IGFBP7 (11715501_s_at) / Fold change /veh IGFBP7 (11715501_s_at) / RFU REEP3 (11722064_at) / Fold change /veh REEP3 (11722064_at) / RFU IGLL1 (11728026_x_at) / Fold change /veh IGLL1 (11728026_x_at): dose or concentration left out as unconfirmed
Conditions: MV-4-11 cells, 48 hours

Nc1ccc(-c2cccs2)cc1NC(=O)c1ccc2c(c1)cc(C1CC1)n2CCN1CCOCC1 [ACY-1035]
Fold change /veh PRSS12 (11739890_at): 1.14
